Assay results: US8039514B2, “Sulfonamide compounds and use thereof” (Asahi Kasei Pharma Corporation, priority 2008, dated 2011)

Molecular target: T1, human calcium-sensing receptor (CaSR) (Homo sapiens, UniProt P41180)
T1 construct: expressed in transfected cells
T1 sequence (P41180 20-1078): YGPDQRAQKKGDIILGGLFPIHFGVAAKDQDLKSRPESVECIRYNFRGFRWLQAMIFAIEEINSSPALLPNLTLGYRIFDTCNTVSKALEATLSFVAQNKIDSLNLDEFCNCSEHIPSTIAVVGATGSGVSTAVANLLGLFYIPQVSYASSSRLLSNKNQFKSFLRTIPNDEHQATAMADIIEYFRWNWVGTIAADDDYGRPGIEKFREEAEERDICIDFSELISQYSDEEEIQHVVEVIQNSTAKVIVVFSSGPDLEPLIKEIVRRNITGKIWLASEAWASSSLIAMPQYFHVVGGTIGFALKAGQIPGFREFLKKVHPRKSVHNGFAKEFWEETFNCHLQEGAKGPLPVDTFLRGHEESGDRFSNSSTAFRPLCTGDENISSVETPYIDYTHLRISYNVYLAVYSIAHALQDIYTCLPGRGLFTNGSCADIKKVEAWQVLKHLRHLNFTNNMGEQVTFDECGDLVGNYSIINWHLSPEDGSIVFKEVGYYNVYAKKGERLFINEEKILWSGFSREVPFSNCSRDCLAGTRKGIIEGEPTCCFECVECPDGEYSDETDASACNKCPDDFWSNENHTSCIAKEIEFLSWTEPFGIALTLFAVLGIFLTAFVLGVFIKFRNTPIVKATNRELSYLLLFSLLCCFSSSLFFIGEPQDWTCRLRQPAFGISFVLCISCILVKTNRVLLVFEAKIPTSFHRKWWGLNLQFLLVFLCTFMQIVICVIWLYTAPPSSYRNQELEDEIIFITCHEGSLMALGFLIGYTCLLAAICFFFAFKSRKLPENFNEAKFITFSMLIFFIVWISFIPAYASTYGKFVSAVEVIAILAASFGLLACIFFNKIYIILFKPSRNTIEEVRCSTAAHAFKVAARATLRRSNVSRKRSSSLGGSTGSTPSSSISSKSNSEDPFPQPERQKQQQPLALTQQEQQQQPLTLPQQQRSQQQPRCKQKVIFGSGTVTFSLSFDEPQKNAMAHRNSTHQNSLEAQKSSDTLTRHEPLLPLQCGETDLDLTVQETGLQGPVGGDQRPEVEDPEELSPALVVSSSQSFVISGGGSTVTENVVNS
Test: intracellular Ca assay, CaSR antagonist activity in HEK293/hCaSR cells
Type: cell-based
Settings: Fura2-AM, inhibition of response to calcium chloride ligand solution, read-out: IC50 values according to the intracellular Ca assay (CaSR antagonist activity)
In short: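 HEK293/hCaSR cells were loaded with Fura2-AM and pre-incubated with compound for 160 s at 37° C in HEPES buffer (pH 7.4, 0.8 mM CaCl2), then challenged with calcium ligand solution. Read-out was the peak 340/380 nm fluorescence ratio; inhibition is relative to no-compound (0%) and no-calcium-ligand (100%) controls.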

Compared with `CN(C[C@H](O)CNC(C)(C)Cc1ccc2ccccc2c1)S(=O)(=O)c1cccc(-c2cccc(C=CC(=O)O)c2)c1` [Exp. 3-16, (R)-3-(3′-(N-(2-hydroxy-3-(2-methyl-1-(naphthalen-2-yl)propan-2-ylamino)propyl)-N-methylsulfamoyl)biphenyl-3-yl)acrylic acid], `CN(C[C@H](O)CNC(C)(C)Cc1ccc2ccccc2c1)S(=O)(=O)c1cccc(-c2cccc(C(=O)O)c2)c1` [Exp. 3-5, (R)-3′-(N-(2-hydroxy-3-(2-methyl-1-(naphthalen-2-yl)propan-2-ylamino)propyl)-N-methylsulfamoyl)biphenyl-3-carboxylic acid] is lower in IC50: 1000 to 3000 nM for the first, at most 300 nM for the second. The second is the more potent here.

`CN(C[C@H](O)CNC(C)(C)CC1Cc2ccccc2C1)S(=O)(=O)c1cccc(-c2ccc(C(=O)O)cc2)c1` [Exp. 3-50, (R)-3′-(N-(3-(1-(2,3-dihydro-1H-inden-2-yl)-2-methylpropan-2-ylamino)-2-hydroxypropyl)-N-methylsulfamoyl)biphenyl-4-carboxylic acid] and `CN(C[C@H](O)CNC(C)(C)CC1Cc2ccccc2C1)S(=O)(=O)c1cccc(-c2ccc(C=CC(=O)O)cc2)c1` [Exp. 3-56, (R)-3-(3′-(N-(3-(1-(2,3-dihydro-1H-inden-2-yl)-2-methylpropan-2-ylamino)-2-hydroxypropyl)-N-methylsulfamoyl)biphenyl-4-yl)acrylic acid] cannot be ordered by IC50: at most 300 nM for the first, 300 to 1000 nM for the second.

`CN(C[C@H](O)CNC(C)(C)Cc1ccc2ccccc2c1)S(=O)(=O)c1cccc(-c2ccc(C(=O)O)cc2F)c1` [Exp. 3-12, (R)-2-fluoro-3′-(N-(2-hydroxy-3-(2-methyl-1-(naphthalen-2-yl)propan-2-ylamino)propyl)-N-methylsulfamoyl)biphenyl-4-carboxylic acid] and `CN(C[C@H](O)CNC(C)(C)Cc1ccc2ccccc2c1)S(=O)(=O)c1cccc(-c2ccc(C(=O)O)cc2N)c1` [Exp. 3-19, (R)-2-amino-3′-(N-(2-hydroxy-3-(2-methyl-1-(naphthalen-2-yl)propan-2-ylamino)propyl)-N-methylsulfamoyl)biphenyl-4-carboxylic acid] fall in the same range of IC50: 300 to 1000 nM for the first, 300 to 1000 nM for the second.

`CN(C[C@H](O)CNC(C)(C)CC1Cc2ccccc2C1)S(=O)(=O)c1cccc(-c2ccc(C(=O)O)c(Cl)c2)c1` [Exp. 3-54, (R)-3-chloro-3′-(N-(3-(1-(2,3-dihydro-1H-inden-2-yl)-2-methylpropan-2-ylamino)-2-hydroxypropyl)-N-methylsulfamoyl)biphenyl-4-carboxylic acid] and `CN(C[C@H](O)CNC(C)(C)CC1Cc2ccccc2C1)S(=O)(=O)c1cccc(-c2ccc(C(=O)O)c(F)c2)c1` [Exp. 3-53, (R)-3′-(N-(3-(1-(2,3-dihydro-1H-inden-2-yl)-2-methylpropan-2-ylamino)-2-hydroxypropyl)-N-methylsulfamoyl)-3-fluorobiphenyl-4-carboxylic acid] cannot be ordered by IC50: at most 300 nM for the first, at most 300 nM for the second.

`CN(C[C@H](O)CNC(C)(C)Cc1ccc2ccccc2c1)S(=O)(=O)c1cccc(-c2ccc(C(=O)O)s2)c1` [Exp. 3-26, (R)-5-(3-(N-(2-hydroxy-3-(2-methyl-1-(naphthalen-2-yl)propan-2-ylamino)propyl)-N-methylsulfamoyl)phenyl)thiophen-2-carboxylic acid] and `Cc1ccc(-c2cccc(S(=O)(=O)N(C)C[C@H](O)CNC(C)(C)Cc3ccc4ccccc4c3)c2)cc1C(=O)O` [Exp. 3-7, (R)-3′-(N-(2-hydroxy-3-(2-methyl-1-(naphthalen-2-yl)propan-2-ylamino)propyl)-N-methylsulfamoyl)-4-methylbiphenyl-3-carboxylic acid] fall in the same range of IC50: 300 to 1000 nM for the first, 300 to 1000 nM for the second.

`CN(C[C@H](O)CNC(C)(C)Cc1ccc(Cl)c(F)c1)S(=O)(=O)c1cccc(-c2ccc(CCC(=O)O)cc2)c1` [Exp. 3-78, (R)-3-(3′-(N-(3-(1-(4-chloro-3-fluorophenyl)-2-methylpropan-2-ylamino)-2-hydroxypropyl)-N-methylsulfamoyl)biphenyl-4-yl)propionic acid] and `CN(C[C@H](O)CNC(C)(C)Cc1ccc(Cl)c(F)c1)S(=O)(=O)c1cccc(-c2ccc(C(=O)O)cc2F)c1` [Exp. 3-76, (R)-3′-(N-(3-(1-(4-chloro-3-fluorophenyl)-2-methylpropan-2-ylamino)-2-hydroxypropyl)-N-methylsulfamoyl)-2-fluorobiphenyl-4-carboxylic acid] fall in the same range of IC50: 1000 to 3000 nM for the first, 1000 to 3000 nM for the second.

Compared with `CN(C[C@H](O)CNC(C)(C)Cc1ccc2ccccc2c1)S(=O)(=O)c1cccc(-c2cc(C(=O)O)cc([N+](=O)[O-])c2)c1` [Exp. 3-18, (R)-3′-(N-(2-hydroxy-3-(2-methyl-1-(naphthalen-2-yl)propan-2-ylamino)propyl)-N-methylsulfamoyl)-5-nitrobiphenyl-3-carboxylic acid], `CN(C[C@H](O)CNC(C)(C)Cc1ccc2ccccc2c1)S(=O)(=O)c1cccc(-c2ccc(C(=O)O)c(Cl)c2)c1` [Exp. 3-11, (R)-3-chloro-3′-(N-(2-hydroxy-3-(2-methyl-1-(naphthalen-2-yl)propan-2-ylamino)propyl)-N-methylsulfamoyl)biphenyl-4-carboxylic acid] is lower in IC50: 1000 to 3000 nM for the first, 300 to 1000 nM for the second. The second is the more potent here.

Compared with `CN(C[C@H](O)CNC(C)(C)Cc1ccc2ccccc2c1)S(=O)(=O)c1ccc(-c2ccc(NC(=O)CCC(=O)O)cc2)cc1` [Exp. 3-43, (R)-4-(4′-(N-(2-hydroxy-3-(2-methyl-1-(naphthalen-2-yl)propan-2-ylamino)propyl)-N-methylsulfamoyl)biphenyl-4-ylamino)-4-oxobutanoic acid], `CN(C[C@H](O)CNC(C)(C)Cc1ccc2ccccc2c1)S(=O)(=O)c1ccc(-c2ccc(SCC(=O)O)cc2)cc1` [Exp. 3-47, (R)-2-(4′-(N-(2-hydroxy-3-(2-methyl-1-(naphthalen-2-yl)propan-2-ylamino)propyl)-N-methylsulfamoyl)biphenyl-4-ylthio)acetic acid] is lower in IC50: 1000 to 3000 nM for the first, 300 to 1000 nM for the second.

`CN(C[C@H](O)CNC(C)(C)Cc1ccc2ccccc2c1)S(=O)(=O)c1ccccc1-c1cccc(C=CC(=O)O)c1` [Exp. 3-1, (R)-3-(2′-(N-(2-hydroxy-3-(2-methyl-1-(naphthalen-2-yl)propan-2-ylamino)propyl)-N-methylsulfamoyl)biphenyl-3-yl)acrylic acid] and `Cc1cc(-c2ccccc2CS(=O)(=O)N(C)C[C@H](O)CNC(C)(C)Cc2ccc3ccccc3c2)ccc1C(=O)O` [Exp. 3-81, (R)-2′-((N-(2-hydroxy-3-(2-methyl-1-(naphthalen-2-yl)propan-2-ylamino)propyl)-N-methylsulfamoyl)methyl)-3-methylbiphenyl-4-carboxylic acid] fall in the same range of IC50: 300 to 1000 nM for the first, 300 to 1000 nM for the second.

`CN(C[C@H](O)CNC(C)(C)CC1Cc2ccccc2C1)S(=O)(=O)c1ccc(-c2cccc(CCC(=O)O)n2)c(Cl)c1` [Exp. 9-161, (R)-3-(6-(2-chloro-4-(N-(3-(1-(2,3-dihydro-1H-inden-2-yl)-2-methylpropan-2-ylamino)-2-hydroxypropyl)-N-methylsulfamoyl)phenyl)pyridin-2-yl)propionic acid] and `CN(C[C@H](O)CNC(C)(C)CC1Cc2ccccc2C1)S(=O)(=O)c1ccc(-c2ccc(C(=O)O)nc2)c(C(F)(F)F)c1` [Exp. 3-231, (R)-5-(4-(N-(3-(1-(2,3-dihydro-1H-inden-2-yl)-2-methylpropan-2-ylamino)-2-hydroxypropyl)-N-methylsulfamoyl)-2-(trifluoromethyl)phenyl)picolinic acid] cannot be ordered by IC50: at most 300 nM for the first, at most 300 nM for the second.

`CN(C[C@H](O)CNC(C)(C)Cc1ccc2ccccc2c1)S(=O)(=O)c1cccc(-c2ccc(C(=O)NCCC(=O)O)cc2)c1` [Exp. 3-27, (R)-3-(3′-(N-(2-hydroxy-3-(2-methyl-1-(naphthalen-2-yl)propan-2-ylamino)propyl)-N-methylsulfamoyl)biphenyl-4-ylcarboxamide)propionic acid] and `CCc1cc(-c2c(F)cccc2CCC(=O)O)ccc1S(=O)(=O)N(C)C[C@H](O)CNC(C)(C)CCCc1ccsc1` [Exp. 8-24, (R)-3-(3′-ethyl-6-fluoro-4′-(N-(2-hydroxy-3-(2-methyl-5-(thiophen-3-yl)pentan-2-ylamino)propyl)-N-methylsulfamoyl)biphenyl-2-yl)propionic acid] cannot be ordered by IC50: 300 to 1000 nM for the first, at most 300 nM for the second.
